Legend:
Test in all cases: Eurofins kinase selectivity profile against 380 other human recombinant kinases (Table S2)
Assay type in all cases: biochemical
[1] = biological target: T1, 380 human recombinant protein kinases (Homo sapiens, UniProt O00443); settings: PI3KC2α(h), read-out: Inhibition rate (%)
T1 construct: purchased Eurofins (Celle Lévescault)
Description: (§1) Subsequently, to ascertain whether the high potency of compound 11 was specific for MK2, an additional 380 human recombinant protein kinases were screened.
(§2) To assess the impact of various compounds on MK2 kinase activity, we utilized the ADP‐Glo Assay Kit (Promega) following the manufacturer's instructions. Luminescence measurements were taken using a SpectraMax Paradigm reader. The inhibition percentage was calculated using the following formula: ((specific signalDMSO control − specific signal inhibitor)/(specific signalDMSO control)) × 100%. The IC50 values were determined employing dose–response curve fitting via Prism (Graph Pad). Additionally, Eurofins company (Celle Lévescault) conducted the analysis on compound 11’s inhibitory activity against 380 other human recombinant kinases at various concentrations.

[2] = biological target: T2, 380 human recombinant protein kinases (Homo sapiens, UniProt O95819); settings: MAP4K4(h), read-out: Inhibition rate
T2 construct: purchased Eurofins (Celle Lévescault)
Description: as §1, §2

[3] = biological target: T3, 380 human recombinant protein kinases (Homo sapiens, UniProt P50613); settings: CDK7/cyclinH/MAT1(h), read-out: Inhibition rate
T3 construct: purchased Eurofins (Celle Lévescault)
Description: as §1, §2

[4] = biological target: T4, 380 human recombinant protein kinases (Homo sapiens, UniProt Q8IZX4); settings: TAF1L(h), read-out: Inhibition rate (%)
T4 construct: purchased Eurofins (Celle Lévescault)
T4 sequence (Q8IZX4 whole entry): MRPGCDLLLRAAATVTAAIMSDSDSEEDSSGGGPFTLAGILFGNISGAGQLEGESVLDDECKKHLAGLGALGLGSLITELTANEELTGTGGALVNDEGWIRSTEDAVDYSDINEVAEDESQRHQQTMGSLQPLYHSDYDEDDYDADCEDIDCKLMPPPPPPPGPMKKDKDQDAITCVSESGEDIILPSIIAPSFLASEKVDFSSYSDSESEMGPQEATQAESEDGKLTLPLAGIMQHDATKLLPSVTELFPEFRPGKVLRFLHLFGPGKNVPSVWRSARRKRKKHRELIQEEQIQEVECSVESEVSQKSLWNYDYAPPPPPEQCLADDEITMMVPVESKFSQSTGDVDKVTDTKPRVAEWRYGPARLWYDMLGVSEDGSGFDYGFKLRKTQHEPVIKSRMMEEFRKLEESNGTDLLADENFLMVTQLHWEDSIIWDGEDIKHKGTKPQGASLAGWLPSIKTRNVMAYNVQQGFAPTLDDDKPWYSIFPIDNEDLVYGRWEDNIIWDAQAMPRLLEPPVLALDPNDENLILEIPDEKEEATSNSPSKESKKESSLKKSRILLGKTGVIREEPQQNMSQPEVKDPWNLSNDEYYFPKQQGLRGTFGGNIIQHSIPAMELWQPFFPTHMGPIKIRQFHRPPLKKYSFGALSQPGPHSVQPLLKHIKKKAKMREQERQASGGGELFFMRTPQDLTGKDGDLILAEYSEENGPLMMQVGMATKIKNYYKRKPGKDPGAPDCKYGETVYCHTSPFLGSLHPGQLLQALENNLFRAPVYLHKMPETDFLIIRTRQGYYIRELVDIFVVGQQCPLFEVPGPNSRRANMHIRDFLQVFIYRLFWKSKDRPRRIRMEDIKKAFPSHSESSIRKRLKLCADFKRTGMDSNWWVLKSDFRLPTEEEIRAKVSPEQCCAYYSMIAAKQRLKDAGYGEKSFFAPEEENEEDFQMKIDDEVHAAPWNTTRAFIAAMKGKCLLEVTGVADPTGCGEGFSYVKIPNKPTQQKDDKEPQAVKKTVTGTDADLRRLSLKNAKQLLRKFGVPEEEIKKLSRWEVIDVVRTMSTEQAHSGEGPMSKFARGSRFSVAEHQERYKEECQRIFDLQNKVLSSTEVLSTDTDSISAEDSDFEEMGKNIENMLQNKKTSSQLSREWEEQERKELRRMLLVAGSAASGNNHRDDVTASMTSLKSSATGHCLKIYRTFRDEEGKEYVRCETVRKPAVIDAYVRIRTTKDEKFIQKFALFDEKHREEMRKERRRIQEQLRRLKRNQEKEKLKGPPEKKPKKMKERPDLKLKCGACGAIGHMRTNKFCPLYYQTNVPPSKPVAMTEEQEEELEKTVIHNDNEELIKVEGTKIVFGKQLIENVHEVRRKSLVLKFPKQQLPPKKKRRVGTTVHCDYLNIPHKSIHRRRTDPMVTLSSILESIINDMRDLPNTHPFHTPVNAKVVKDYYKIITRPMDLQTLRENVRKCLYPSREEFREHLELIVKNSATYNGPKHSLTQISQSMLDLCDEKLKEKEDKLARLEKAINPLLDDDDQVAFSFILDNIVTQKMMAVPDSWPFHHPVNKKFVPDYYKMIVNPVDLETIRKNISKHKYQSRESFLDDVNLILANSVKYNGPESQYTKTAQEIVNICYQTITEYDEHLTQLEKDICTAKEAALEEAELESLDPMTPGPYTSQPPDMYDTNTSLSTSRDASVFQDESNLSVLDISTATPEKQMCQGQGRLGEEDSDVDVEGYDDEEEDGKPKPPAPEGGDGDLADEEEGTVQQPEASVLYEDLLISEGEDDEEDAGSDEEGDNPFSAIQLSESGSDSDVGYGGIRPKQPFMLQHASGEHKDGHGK
Description: as §1, §2

[5] = biological target: T5, 380 human recombinant protein kinases (Homo sapiens, UniProt Q8NE63); settings: HIPK4(h), read-out: Inhibition rate
T5 construct: purchased Eurofins (Celle Lévescault)
T5 sequence (Q8NE63 1-616): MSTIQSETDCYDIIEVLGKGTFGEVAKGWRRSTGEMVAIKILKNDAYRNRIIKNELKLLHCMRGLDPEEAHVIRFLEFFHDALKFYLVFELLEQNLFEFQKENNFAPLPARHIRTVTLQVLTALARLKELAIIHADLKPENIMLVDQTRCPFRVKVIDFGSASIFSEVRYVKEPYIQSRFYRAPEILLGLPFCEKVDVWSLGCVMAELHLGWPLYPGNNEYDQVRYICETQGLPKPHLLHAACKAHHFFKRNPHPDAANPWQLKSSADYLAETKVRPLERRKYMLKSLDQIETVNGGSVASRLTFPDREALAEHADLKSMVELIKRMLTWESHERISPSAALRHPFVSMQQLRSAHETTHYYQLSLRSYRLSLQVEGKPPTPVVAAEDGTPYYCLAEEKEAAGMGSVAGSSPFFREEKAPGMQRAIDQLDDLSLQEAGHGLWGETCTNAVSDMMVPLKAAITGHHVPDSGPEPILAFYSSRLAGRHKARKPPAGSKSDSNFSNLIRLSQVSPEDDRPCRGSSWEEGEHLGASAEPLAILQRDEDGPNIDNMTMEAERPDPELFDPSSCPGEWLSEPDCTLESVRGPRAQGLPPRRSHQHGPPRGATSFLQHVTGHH
Description: as §1, §2

[6] = biological target: T6, 380 human recombinant protein kinases (Homo sapiens, UniProt Q8TDX7); settings: NEK7(h), read-out: Inhibition rate
T6 construct: purchased Eurofins (Celle Lévescault)
T6 sequence (Q8TDX7 whole entry): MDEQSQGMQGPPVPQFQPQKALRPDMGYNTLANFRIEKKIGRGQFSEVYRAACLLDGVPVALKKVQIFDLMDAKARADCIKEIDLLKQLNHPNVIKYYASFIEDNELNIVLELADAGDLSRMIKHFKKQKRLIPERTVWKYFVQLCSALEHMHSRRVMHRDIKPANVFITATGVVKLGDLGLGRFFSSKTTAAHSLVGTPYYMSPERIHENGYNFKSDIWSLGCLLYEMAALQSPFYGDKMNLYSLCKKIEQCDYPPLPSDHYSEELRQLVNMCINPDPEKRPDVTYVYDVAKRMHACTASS
Description: as §1, §2

[7] = biological target: T7, 380 human recombinant protein kinases (Homo sapiens, UniProt Q9HAZ1); settings: CLK4(h), read-out: Inhibition rate
T7 construct: purchased Eurofins (Celle Lévescault)
T7 sequence (Q9HAZ1 whole entry): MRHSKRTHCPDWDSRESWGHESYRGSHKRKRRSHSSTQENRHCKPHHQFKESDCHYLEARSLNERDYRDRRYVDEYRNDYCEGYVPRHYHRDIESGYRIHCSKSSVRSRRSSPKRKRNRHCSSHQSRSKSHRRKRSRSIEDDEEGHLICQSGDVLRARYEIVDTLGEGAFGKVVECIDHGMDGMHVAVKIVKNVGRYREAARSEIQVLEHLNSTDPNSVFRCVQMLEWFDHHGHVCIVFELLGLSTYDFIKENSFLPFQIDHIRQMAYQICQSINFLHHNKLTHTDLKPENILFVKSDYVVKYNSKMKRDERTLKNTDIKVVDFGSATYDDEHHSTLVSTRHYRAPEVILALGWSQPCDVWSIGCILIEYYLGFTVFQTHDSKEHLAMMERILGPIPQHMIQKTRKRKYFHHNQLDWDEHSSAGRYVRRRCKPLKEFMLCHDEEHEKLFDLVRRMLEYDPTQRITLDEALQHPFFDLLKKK
Description: as §1, §2

[8] = biological target: T8, 380 human recombinant protein kinases (Homo sapiens, UniProt Q9HBH9); settings: Mnk2(h), read-out: Inhibition rate
T8 construct: purchased Eurofins (Celle Lévescault)
T8 sequence (Q9HBH9 whole entry): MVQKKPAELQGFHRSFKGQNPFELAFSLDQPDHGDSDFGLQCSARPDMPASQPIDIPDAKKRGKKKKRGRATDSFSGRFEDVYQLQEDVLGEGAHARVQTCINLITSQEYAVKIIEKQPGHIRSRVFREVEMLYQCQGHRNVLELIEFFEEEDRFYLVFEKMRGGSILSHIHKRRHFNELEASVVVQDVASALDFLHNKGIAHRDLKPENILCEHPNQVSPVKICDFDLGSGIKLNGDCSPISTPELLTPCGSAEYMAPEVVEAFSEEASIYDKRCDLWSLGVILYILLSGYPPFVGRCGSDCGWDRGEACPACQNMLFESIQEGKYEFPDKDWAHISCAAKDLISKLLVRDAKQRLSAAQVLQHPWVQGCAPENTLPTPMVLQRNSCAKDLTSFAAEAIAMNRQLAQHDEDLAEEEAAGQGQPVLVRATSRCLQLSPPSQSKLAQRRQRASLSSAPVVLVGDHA
Description: as §1, §2

[9] = biological target: T9, 380 human recombinant protein kinases (Homo sapiens, UniProt Q9NZJ5); settings: PEK(h), read-out: Inhibition rate
T9 construct: purchased Eurofins (Celle Lévescault)
T9 sequence (Q9NZJ5 30-1116): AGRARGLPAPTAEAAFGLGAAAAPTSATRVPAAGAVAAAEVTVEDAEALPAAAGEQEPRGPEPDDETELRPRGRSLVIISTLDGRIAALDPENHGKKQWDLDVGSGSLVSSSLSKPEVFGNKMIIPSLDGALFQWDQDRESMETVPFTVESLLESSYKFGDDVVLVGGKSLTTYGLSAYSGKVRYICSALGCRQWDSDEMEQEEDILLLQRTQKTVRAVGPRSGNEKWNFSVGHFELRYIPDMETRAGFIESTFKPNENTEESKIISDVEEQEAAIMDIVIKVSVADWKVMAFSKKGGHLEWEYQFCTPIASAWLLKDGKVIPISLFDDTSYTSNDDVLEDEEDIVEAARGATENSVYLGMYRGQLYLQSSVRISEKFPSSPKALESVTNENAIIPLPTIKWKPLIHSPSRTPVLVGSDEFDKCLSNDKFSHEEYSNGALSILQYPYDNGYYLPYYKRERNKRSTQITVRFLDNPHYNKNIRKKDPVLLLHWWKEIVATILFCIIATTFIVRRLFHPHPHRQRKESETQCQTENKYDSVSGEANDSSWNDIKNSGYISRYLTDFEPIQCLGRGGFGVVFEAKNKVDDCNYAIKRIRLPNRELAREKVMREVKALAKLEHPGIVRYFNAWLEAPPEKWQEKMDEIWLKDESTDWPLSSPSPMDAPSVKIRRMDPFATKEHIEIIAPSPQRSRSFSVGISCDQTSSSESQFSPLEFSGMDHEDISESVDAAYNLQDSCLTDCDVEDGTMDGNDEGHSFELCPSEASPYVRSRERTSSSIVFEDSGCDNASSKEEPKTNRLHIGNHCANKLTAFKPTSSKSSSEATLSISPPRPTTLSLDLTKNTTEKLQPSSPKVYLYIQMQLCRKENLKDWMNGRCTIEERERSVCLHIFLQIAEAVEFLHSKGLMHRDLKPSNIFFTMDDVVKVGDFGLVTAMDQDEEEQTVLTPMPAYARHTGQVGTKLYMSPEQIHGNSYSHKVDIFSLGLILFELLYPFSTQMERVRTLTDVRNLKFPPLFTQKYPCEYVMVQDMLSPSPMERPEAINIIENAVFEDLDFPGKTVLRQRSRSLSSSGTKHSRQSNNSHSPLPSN
Description: as §1, §2

T1 sequence (O00443 whole entry): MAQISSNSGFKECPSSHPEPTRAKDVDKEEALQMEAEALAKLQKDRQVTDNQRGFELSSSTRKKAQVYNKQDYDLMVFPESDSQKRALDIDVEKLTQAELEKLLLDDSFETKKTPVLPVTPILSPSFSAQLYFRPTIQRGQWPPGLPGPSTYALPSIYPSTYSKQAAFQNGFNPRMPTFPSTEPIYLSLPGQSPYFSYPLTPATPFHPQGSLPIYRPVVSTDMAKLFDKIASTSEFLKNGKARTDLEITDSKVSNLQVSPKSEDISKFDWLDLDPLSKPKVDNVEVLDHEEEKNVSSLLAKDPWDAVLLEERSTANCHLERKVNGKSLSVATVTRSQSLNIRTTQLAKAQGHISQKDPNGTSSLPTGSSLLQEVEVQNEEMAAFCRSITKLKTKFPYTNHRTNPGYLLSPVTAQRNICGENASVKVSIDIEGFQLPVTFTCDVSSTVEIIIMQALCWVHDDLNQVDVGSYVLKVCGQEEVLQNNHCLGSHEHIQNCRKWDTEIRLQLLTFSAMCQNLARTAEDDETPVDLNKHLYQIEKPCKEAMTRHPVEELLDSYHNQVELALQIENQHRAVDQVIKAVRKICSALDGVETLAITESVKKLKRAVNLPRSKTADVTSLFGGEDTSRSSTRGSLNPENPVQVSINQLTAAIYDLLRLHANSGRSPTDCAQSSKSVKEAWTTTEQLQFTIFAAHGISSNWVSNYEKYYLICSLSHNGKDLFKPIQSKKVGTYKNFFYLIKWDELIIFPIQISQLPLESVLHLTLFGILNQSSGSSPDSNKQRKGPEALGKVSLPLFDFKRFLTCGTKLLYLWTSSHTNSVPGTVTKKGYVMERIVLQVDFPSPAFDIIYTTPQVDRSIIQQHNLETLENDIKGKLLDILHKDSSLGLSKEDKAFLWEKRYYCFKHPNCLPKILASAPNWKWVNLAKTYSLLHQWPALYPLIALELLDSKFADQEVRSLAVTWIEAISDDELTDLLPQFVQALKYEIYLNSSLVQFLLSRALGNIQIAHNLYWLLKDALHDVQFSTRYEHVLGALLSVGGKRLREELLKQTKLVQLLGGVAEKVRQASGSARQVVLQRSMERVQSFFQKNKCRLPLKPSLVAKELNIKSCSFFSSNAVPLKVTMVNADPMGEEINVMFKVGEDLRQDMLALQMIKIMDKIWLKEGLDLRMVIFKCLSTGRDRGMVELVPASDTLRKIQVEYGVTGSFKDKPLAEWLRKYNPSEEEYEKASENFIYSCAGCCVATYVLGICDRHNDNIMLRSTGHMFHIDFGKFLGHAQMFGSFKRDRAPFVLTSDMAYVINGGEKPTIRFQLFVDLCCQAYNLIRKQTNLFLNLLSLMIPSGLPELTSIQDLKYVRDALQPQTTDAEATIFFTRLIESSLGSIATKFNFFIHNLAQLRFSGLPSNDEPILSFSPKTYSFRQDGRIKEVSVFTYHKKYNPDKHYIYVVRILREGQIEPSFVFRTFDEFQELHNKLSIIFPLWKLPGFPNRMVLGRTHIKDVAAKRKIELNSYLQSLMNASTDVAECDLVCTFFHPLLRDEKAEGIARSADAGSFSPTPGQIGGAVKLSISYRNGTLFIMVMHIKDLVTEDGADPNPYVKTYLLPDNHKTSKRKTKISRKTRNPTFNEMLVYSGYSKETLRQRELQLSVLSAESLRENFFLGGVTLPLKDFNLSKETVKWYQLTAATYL

Structure (SMILES): C=CC(=O)Nc1cc(-c2cc(-c3cc4c([nH]3)CCNC4=O)ccn2)ccc1OC(F)(F)F [compound 11]
- inhibition at 0.01 µM ([1]; 10 nM): -4%
- inhibition at 0.1 µM ([1]; 100 nM): -2%
- inhibition at 1 µM ([1]; 1000 nM): -5%
- inhibition at 0.01 µM ([2]; 10 nM): -11%
- inhibition at 0.1 µM ([2]; 100 nM): -1%
- inhibition at 1 µM ([2]; 1000 nM): 33%
- inhibition at 0.01 µM ([3]; 10 nM): 5%
- inhibition at 0.1 µM ([3]; 100 nM): -1%
- inhibition at 1 µM ([3]; 1000 nM): -2%
- inhibition at 0.01 µM ([4]; 10 nM): 51%
- inhibition at 0.1 µM ([4]; 100 nM): 74%
- inhibition at 1 µM ([4]; 1000 nM): 80%
- inhibition at 0.01 µM ([5]; 10 nM): -23%
- inhibition at 0.1 µM ([5]; 100 nM): -10%
- inhibition at 1 µM ([5]; 1000 nM): 23%
- inhibition at 0.01 µM ([6]; 10 nM): -5%
- inhibition at 0.1 µM ([6]; 100 nM): -2%
- inhibition at 1 µM ([6]; 1000 nM): 3%
- inhibition at 0.01 µM ([7]; 10 nM): -6%
- inhibition at 0.1 µM ([7]; 100 nM): 25%
- inhibition at 1 µM ([7]; 1000 nM): 76%
- inhibition at 0.01 µM ([8]; 10 nM): 4%
- inhibition at 0.1 µM ([8]; 100 nM): 13%
- inhibition at 1 µM ([8]; 1000 nM): 61%
- inhibition at 0.01 µM ([9]; 10 nM): -1%
- inhibition at 0.1 µM ([9]; 100 nM): -9%
- inhibition at 1 µM ([9]; 1000 nM): 2%

Source: publication PMC11233931, “Remodeling tumor‐associated macrophage for anti‐cancer effects by rational design of irreversible inhibition of mitogen‐activated protein kinase‐activated protein kinase 2” (MedComm, 2024)
